Consider eight molecules from patent US8729269B2, “Substituted piperidino phenyloxazolidinones having antimicrobial activity with improved in vivo efficacy” (Wockhardt Limited, priority 2003, dated 2014).

In general, MIC refers to the least concentration at which growth counts as inhibited. High values mean a less susceptible organism, low ones a more susceptible organism. Broadly, the ED50 is the dose that gives a 50% effect, or the effect in half of the subjects. High values mean weaker potency, low ones greater potency.

The test system of assay [1] is Vancomycin resistant enterococci 303 (VRE 303). Kind of assay: Minimum Inhibitory Concentration (MIC) determination, agar dilution. It counts as cell-based. Particulars: Enterococcus, Mueller Hinton agar, 24 hrs at 35° C. As to the method:
(§1) Overnight grown cultures of Methicilin resistant Staphylococcus aureus 32 (MRSA 32), Methicilin resistant Staphylococcus epidermidis 118 (MRSE 118), Vancomycin resistant enterococci 303 (VRE 303) in Tryptic Soya broth were diluted in Mueller Hinton Broth to give optical density matching with MacFarland tube 0.5 standard. Cultures were further diluted 1:10 in Mueller Hinton broth. Using Denley's multipoint inoculator, 10^4 cells were deposited on Mueller Hinton agar (Difco) containing range of 2 fold dilutions of test compounds. These plates were incubated for 24 hrs at 35° C. and MIC results recorded. MIC is defined as minimum drug concentration that inhibits test organisms. For determining MIC of test compounds against Streptococcus pneumoniae 49619 (SPN 49619) and Streptococcus pyogenes 801 (SPY 801), Mueller Hinton agar containing 5% sheep blood was employed.
On the technique in general: In agar dilution the substance is mixed into plates at graded concentrations.

For assay [2], the system named is Methicilin resistant Staphylococcus aureus 32 (MRSA 32). The description is as above. It counts as cell-based. Particulars: Mueller Hinton agar, 24 hrs at 35° C. As for the experimental part: as §1
In assay [3] the test system is Methicilin resistant Staphylococcus epidermidis 118 (MRSE 118). The assay is described as above. In kind it is cell-based. Particulars: Mueller Hinton agar, 24 hrs at 35° C. As for the experimental part: as §1
In assay [4] the test system is methicillin resistant Staphylococcus aureus strain MRSA 32. Kind of assay: Murine Assay Procedure (in vivo efficacy, MRSA 32 infection). Particulars: swiss mice infected intraperitoneally with MRSA 32, oral gavage 1 h after infection, repeat dose 3 hrs later, percentage survival on Day 7. As for the experimental part: Oxazolidinone new chemical entities (NCEs) were evaluated for their in vivo efficacy in a murine infection caused by multi-drug resistant, methicillin resistant Staphylococcus aureus strain, referred to as MRSA 32, a clinical isolate obtained from a hospitalized patient. The procedure used for the murine assay is as follows:
Four weeks old swiss mice of 18-22 gm body weight were infected with MRSA 32 strain suspended in 5% Hog gastric mucin. The infecting dose of bacteria was set at 1-2×10^8 CFU/animal. The infecting dose was administered in 0.5 ml volume injected into peritonial cavity of mice. The treatment with oxazolidinone NCEs was started one hour after infection by administering 100-200 μl of the suspensions of oxazolidinone compounds in 5% Tween 80 by oral gavage. A repeat dose was similarly administered 3 hrs later. Each oxazolidinone NCE was tested at 2-3 different dosages in the range of 2.5 mg/kg to 20 mg/kg. In each dose group 6 mice were included. As an infection control group 12 mice were infected with MRSA 32 strain without giving any treatment. For compounds affording protection of MRSA infected mice, ED50 dosages were calculated on the basis of percentage survival on Day 7 after infection.

The subject of assay [5] is Streptococcus pneumoniae 49619 (SPN 49619). Kind of assay: Minimum Inhibitory Concentration (MIC) determination, agar with 5% sheep blood. In kind it is cell-based. Particulars: Mueller Hinton agar containing 5% sheep blood. As for the experimental part: as §1
Assay [6] deals with Streptococcus pyogenes 801 (SPY 801). The assay is described as above. It counts as cell-based. Particulars: Mueller Hinton agar containing 5% sheep blood. As for the experimental part:
as §1

The structures appear in SMILES notation. In brackets after ≈: the same amount, converted by molar mass. Where only a bound is given, the exact number is not on record here.

Turning to `CC(=O)NC[C@H]1CN(c2ccc(N3CCC4(CC3)CC4C#N)cc2)C(=O)O1` (mixture of isomers) [Example 96, (1RS,5S)—N-{3-[4-(1-cyano-6-aza-spiro[2.5]oct-6-yl)-phenyl]-2-oxo-oxazolidin-5-ylmethyl}-acetamide], the minimal inhibitory concentration (MIC) in assay [1] is 8 µg/mL; in assay [2], 4 µg/mL; in assay [3], 2 µg/mL; in assay [5] it was 4 µg/mL; in assay [6] it was 4 µg/mL. This molecule also had an ED50 in assay [4] of 5 mg/kg.

In the case of `CC(=O)NC[C@H]1CN(c2ccc(N3CCC4(CC3)CC4C#N)c(F)c2)C(=O)O1` (mixture of isomers) [Example 97, (1RS,5S)—N-{3-[4-(1-cyano-6-aza-spiro[2.5]oct-6-yl)-3-fluorophenyl]-2-oxo-oxazolidin-5-ylmethyl}-acetamide], the minimum inhibitory concentration (MIC) in assay [1] amounted to 2 µg/mL; in assay [2], 4 µg/mL; in assay [3], 1 µg/mL; in assay [5] it was 2 µg/mL; in assay [6], 2 µg/mL. Also, the ED50 in assay [4] was found to be 5 mg/kg.

Take `CS(=O)(=O)NCC1CN(c2ccc(N3CCC(O)(CN=[N+]=[N-])CC3)c(F)c2)C(=O)O1` (stereo in doubt) [Example 40, (S)—N-{3-[4-(4-Azidomethyl-4-hydroxypiperidin-1-yl)-3-fluorophenyl]-2-oxo-oxazolidin-5-ylmethyl}-methanesulfonamide]: the MIC was greater than 16 µg/mL in assay [1]; 8 µg/mL (≈ 18.1 µM) in assay [2]; 8 µg/mL (≈ 18.1 µM) in assay [3]; greater than 8 µg/mL in assay [5]; greater than 8 µg/mL in assay [6]. In addition, in assay [4], the 50% effect level (ED50) was put at a dose of 10 mg/kg.

Take `CC(=O)NC[C@H]1CN(c2ccc(N3CCC(C)(F)CC3)c(F)c2)C(=O)O1` [Example 1, (S)—N-{3-[4-(4-Fluoro-4-methylpiperidin-1-yl)-3-fluorophenyl]-2-oxo-oxazolidin-5-ylmethyl}-acetamide]: the minimum inhibitory concentration (MIC) in assay [1] was 4 µg/mL (≈ 10.9 µM); in assay [2], 4 µg/mL (≈ 10.9 µM); in assay [3] it was 2 µg/mL (≈ 5.44 µM); in assay [5] it was 2 µg/mL (≈ 5.44 µM); in assay [6] it was 2 µg/mL (≈ 5.44 µM). The molecule further registered an ED50 in assay [4] of 10 mg/kg.

For `CC(=O)NC[C@H]1CN(c2ccc(N3CCC(F)(CC#N)CC3)c(F)c2)C(=O)O1` [Example 2, (S)—N-{3-[4-(4-Fluoro-4-cyanomethylpiperidin-1-yl)-3-fluorophenyl]-2-oxo-oxazolidin-5-ylmethyl}-acetamide], the minimum inhibitory concentration (MIC) in assay [1] worked out at 1 µg/mL (≈ 2.55 µM); in assay [2] it was 1 µg/mL (≈ 2.55 µM); in assay [3] it was 0.5 µg/mL (≈ 1.27 µM); in assay [5], 0.5 µg/mL (≈ 1.27 µM); in assay [6] it was 1 µg/mL (≈ 2.55 µM). It took a dose of 2.5 mg/kg to reach the 50% effect level in assay [4] (ED50).

Turning to `CC(=O)NC[C@H]1CN(c2ccc(N3CCC(F)(CN=[N+]=[N-])CC3)c(F)c2)C(=O)O1` [Example 4, (S)—N-{3-[4-(4-Fluoro-4-azidomethylpiperidin-1-yl)-3-fluorophenyl]-2-oxo-oxazolidin-5-ylmethyl}-acetamide], the MIC was 2 µg/mL (≈ 4.9 µM) in assay [1]; 2 µg/mL (≈ 4.9 µM) in assay [2]; 1 µg/mL (≈ 2.45 µM) in assay [3]; 2 µg/mL (≈ 4.9 µM) in assay [5]; 2 µg/mL (≈ 4.9 µM) in assay [6]. Further, the ED50 in assay [4] was 10 mg/kg.

In the case of `CC(=O)NC[C@H]1CN(c2ccc(N3CCC4(CC3)C[S+]([O-])CCO4)c(F)c2)C(=O)O1` (stereo partly drawn) [Example 162, (S)—N-{3-[4-(1-oxa-4-sulfinyl-9-aza-spiro[5.5]undec-9-yl)-3-fluorophenyl]-2-oxo-oxazolidin-5-ylmethyl}-acetamide], the results for the MIC in assay [2], in assay [5] and in assay [6] were 8 µg/mL (≈ 18.2 µM), 4 µg/mL (≈ 9.1 µM) and 4 µg/mL (≈ 9.1 µM), respectively. Also, it took a dose of 10 mg/kg to reach the 50% effect level in assay [4] (ED50).

Take `COCC1(O)CCN(c2ccc(N3C[C@H](CNC(C)=O)OC3=O)cc2)CC1` [Example 177, (S)—N-{3-[4-(4-methoxymethyl-4-hydroxy-piperidin-1-yl)-phenyl]-2-oxo-oxazolidin-5-ylmethyl}-acetamide]: the MIC stood at 8 µg/mL (≈ 21.2 µM) in assay [1], 8 µg/mL (≈ 21.2 µM) in assay [2] and 4 µg/mL (≈ 10.6 µM) in assay [3]. Moreover, the 50% effect level in assay [4] (ED50) was put at a dose of 10 mg/kg.
